ChEMBL document CHEMBL1201862, “PubChem BioAssay data set” (2004)
Calls of active or inactive are those of the source.

What was measured:
[1] = target: Photoreceptor-specific nuclear receptor (Homo sapiens, UniProt Q9Y5X4); assay type: functional, cell-based;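 further: CHO-S cells with Gal4-NCOR and VP16-NR2E3 two-hybrid luciferase reporter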
[2] = target: Cytochrome P450 2C19 (Homo sapiens, UniProt P33261); assay: Cytochrome panel assay with activity outcomes. Panel member name: p450-cyp2c19 Compounds with AC50 equal or less than 10 uM are considered active; assay type: functional; details: read-out: AC50
[3] = target: T1, Carboxy-terminal domain RNA polymerase II polypeptide A small phosphatase 1 (Homo sapiens, UniProt Q9GZU7); assay: inhibitors of CTDSP1, concentration-response testing, biochemical assay, absorbance-based, actives from ultra-high-throughput screening (AID 540297); assay type: functional
T1 sequence (Q9GZU7 whole entry): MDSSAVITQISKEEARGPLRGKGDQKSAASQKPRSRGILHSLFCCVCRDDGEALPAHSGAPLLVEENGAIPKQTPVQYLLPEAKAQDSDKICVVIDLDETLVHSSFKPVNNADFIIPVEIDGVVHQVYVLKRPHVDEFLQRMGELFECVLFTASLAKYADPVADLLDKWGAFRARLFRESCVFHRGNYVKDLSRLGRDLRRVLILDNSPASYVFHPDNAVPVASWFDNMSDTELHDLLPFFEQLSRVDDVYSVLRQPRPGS

[4] = target: T2, Low molecular weight phosphotyrosine protein phosphatase (Homo sapiens, UniProt P24666); assay type: functional; details: read-out: IC50_Mean
T2 sequence (P24666 whole entry): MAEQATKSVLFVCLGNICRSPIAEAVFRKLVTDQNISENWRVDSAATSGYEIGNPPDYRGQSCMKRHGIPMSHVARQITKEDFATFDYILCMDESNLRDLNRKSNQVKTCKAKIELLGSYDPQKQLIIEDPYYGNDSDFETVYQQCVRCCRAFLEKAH

[5] = target: T3, Probable nicotinate-nucleotide adenylyltransferase (Staphylococcus aureus (strain N315), UniProt P65502); assay type: functional, Staphylococcus aureus subsp. aureus N315;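 on IC50 Mean: confirmatory dose-response retesting of NadD inhibitor hits first found in an ultra-high-throughput screen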
T3 sequence (P65502 whole entry): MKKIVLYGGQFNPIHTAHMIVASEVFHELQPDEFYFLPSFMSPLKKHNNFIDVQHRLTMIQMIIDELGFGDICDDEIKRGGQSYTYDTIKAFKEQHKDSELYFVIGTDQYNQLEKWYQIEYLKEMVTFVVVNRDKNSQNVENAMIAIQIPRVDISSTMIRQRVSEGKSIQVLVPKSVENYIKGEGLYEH

[6] = target: T3, Probable nicotinate-nucleotide adenylyltransferase; assay type: functional, Staphylococcus aureus subsp. aureus N315; details: read-out: IC50_Mean
[7] = target: T2, Low molecular weight phosphotyrosine protein phosphatase; assay type: functional; details: read-out: IC50_Mean; remark: listed apart in the source
[8] = target: Cytochrome P450 3A4 (Homo sapiens, UniProt P08684);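 further: CYP3A4 tested as one member of a cytochrome P450 panel screen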
Cytochrome P450 3A4, sequence (P08684 whole entry, the tested form may be a part): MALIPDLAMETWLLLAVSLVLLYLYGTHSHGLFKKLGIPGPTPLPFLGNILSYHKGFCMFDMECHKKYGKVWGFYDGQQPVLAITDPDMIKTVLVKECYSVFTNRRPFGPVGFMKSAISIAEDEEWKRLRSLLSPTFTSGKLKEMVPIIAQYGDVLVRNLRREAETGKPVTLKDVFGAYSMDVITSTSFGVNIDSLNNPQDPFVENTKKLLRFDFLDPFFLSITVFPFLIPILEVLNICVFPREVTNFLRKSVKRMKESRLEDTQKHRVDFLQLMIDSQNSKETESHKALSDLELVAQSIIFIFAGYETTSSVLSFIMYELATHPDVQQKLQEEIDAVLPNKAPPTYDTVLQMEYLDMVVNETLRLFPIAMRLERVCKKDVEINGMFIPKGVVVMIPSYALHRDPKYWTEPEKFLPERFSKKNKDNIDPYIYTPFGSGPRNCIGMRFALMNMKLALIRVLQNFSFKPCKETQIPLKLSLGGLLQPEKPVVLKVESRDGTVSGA

[9] = target: Arf-GAP with SH3 domain, ANK repeat and PH domain-containing protein 1 (Homo sapiens, UniProt Q9ULH1); assay type: functional;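 further: biochemical fluorescence polarization dose–response screen measuring inhibition of ASAP1; ASAP1 GAP domain stimulating GTP hydrolysis by truncated human ARF1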
Arf-GAP with SH3 domain, ANK repeat and PH domain-containing protein 1, sequence (Q9ULH1 whole entry, the tested form may be a part): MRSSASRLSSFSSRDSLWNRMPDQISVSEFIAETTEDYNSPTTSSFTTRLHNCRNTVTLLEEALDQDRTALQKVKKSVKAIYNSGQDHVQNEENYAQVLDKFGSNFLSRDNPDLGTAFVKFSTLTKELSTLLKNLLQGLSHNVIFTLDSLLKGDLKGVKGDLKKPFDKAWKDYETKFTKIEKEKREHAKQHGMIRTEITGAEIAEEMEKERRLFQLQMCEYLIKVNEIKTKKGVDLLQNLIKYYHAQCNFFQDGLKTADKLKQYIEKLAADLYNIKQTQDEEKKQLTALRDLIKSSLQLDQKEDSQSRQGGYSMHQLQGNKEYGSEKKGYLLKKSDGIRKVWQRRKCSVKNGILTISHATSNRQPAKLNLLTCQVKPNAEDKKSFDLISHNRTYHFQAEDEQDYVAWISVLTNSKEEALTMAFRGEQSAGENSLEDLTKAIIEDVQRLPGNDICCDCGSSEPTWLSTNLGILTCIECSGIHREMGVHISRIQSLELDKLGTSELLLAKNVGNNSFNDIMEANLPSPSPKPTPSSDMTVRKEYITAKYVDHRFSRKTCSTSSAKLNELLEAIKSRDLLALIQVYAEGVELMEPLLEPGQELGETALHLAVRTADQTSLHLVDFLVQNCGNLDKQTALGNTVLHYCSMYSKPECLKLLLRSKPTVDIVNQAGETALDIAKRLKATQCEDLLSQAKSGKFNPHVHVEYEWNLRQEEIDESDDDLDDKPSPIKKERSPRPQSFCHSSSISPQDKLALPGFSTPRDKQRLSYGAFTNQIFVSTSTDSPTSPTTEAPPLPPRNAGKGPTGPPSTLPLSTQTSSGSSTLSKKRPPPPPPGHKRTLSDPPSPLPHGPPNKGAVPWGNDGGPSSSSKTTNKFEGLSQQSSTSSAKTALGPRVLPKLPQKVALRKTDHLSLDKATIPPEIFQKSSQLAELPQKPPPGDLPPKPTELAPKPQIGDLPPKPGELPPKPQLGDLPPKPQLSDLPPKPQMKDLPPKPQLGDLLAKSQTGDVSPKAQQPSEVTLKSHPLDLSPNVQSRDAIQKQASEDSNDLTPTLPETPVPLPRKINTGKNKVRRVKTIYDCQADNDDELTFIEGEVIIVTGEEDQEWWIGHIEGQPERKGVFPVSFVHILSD

[10] = cytotoxicity in HEK293 cells, dose response, cytotoxicity control, cell-based, plate reader, cherry-pick (AID 651899); assay type: functional
[11] = target: T4, Adenosylmethionine-8-amino-7-oxononanoate aminotransferase (Mycobacterium tuberculosis, UniProt P9WQ81); assay: Mycobacterium tuberculosis BioA enzyme inhibitor Measured in Biochemical System Using Plate Reader - 2163-02_Inhibitor_Dose_CherryPick_Activity.; assay type: functional, Mycobacterium tuberculosis UT205
T4 sequence (P9WQ81 whole entry): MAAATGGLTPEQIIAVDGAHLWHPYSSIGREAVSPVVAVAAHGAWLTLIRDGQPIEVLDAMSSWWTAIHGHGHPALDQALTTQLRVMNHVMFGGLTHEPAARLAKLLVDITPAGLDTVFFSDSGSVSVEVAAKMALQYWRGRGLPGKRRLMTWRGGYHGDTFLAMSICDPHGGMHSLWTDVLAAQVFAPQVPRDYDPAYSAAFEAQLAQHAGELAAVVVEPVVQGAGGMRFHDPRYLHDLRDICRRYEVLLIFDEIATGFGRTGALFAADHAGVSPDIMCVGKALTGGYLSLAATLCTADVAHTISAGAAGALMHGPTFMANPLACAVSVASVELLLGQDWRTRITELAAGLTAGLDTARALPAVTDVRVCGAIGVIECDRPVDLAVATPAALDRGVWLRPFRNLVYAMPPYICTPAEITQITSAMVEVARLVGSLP

[12] = target: T5, Corticotropin-releasing factor receptor 2/Corticotropin-releasing factor-binding protein (Homo sapiens, UniProt P24387+Q13324); assay: Dose Response confirmation of uHTS hits for small molecule antagonists of the CRF-binding protein and CRF-R2 receptor complex.; assay type: functional; details: read-out: IC50_Mean
T5 sequence (Q13324 whole entry): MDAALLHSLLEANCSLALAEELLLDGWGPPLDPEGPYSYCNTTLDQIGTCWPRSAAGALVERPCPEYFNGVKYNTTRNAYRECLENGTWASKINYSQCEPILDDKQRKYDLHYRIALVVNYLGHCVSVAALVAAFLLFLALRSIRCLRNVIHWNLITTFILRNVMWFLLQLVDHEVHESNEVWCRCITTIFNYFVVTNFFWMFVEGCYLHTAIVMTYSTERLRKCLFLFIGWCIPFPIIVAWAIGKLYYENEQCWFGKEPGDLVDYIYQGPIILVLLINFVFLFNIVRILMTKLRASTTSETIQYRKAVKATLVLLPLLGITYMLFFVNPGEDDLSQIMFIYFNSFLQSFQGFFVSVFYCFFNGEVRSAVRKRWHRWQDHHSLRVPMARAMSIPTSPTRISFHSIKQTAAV
T5 sequence (P24387 whole entry): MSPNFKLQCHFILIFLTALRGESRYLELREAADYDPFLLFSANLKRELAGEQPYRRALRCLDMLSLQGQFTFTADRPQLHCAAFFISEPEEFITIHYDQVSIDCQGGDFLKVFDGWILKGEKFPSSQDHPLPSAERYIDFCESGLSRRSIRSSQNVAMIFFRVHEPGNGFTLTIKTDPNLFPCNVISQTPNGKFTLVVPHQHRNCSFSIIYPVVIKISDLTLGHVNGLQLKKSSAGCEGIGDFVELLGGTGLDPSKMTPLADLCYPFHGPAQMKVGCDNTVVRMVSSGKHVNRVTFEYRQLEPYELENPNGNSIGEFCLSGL

[13] = target: T5, Corticotropin-releasing factor receptor 2/Corticotropin-releasing factor-binding protein; assay: activators of CRF receptor 2 with binding protein – uHTS hits, confirmation (AID 602473); assay type: functional; details: read-out: EC50_Mean
[14] = CRF-BP/CRF-R2 complex antagonists, dose response, cell-based, uHTS hits, 384-well (AID 651639); assay type: functional, Homo sapiens; details: read-out: IC50_Mean
[15] = target: T6, Bcl-2-like protein 10 (Homo sapiens, UniProt Q9HD36); assay: displacers of TR3 peptide from Bcl-B, primary screen, selectivity assay for Bfl-1 inhibitor project, biochemical, fluorescence polarization, FITC-TR3 peptide (AID 748);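 further: fluorescence polarization from a fluorescein-labelled TR3 peptide binding purified Bcl-B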
T6 sequence (Q9HD36 whole entry): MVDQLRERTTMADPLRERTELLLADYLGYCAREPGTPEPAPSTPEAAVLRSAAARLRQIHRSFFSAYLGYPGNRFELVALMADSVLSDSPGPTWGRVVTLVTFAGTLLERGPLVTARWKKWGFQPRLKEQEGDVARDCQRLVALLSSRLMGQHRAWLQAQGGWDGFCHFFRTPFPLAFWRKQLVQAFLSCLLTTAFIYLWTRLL

[16] = target: Estrogen receptor (Homo sapiens, UniProt P03372);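 further: potency for inhibiting coactivator peptide recruitment to the receptor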
Estrogen receptor, sequence (P03372 whole entry): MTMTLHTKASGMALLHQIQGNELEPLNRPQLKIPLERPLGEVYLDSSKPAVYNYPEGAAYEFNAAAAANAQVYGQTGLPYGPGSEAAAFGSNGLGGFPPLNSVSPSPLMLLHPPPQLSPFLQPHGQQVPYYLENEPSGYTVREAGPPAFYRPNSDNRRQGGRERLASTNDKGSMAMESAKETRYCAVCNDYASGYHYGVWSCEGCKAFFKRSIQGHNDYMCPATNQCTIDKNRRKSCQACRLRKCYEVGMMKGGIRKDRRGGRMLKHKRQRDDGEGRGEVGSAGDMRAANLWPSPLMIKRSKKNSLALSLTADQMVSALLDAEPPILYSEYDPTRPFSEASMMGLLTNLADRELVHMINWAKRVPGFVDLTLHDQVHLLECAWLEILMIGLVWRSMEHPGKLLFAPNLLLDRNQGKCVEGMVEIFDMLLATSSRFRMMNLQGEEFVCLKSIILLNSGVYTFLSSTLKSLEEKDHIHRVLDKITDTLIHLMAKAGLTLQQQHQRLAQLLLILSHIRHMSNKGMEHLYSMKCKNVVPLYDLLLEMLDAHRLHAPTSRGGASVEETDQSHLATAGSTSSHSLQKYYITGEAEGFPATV

[17] = target: T7, Estrogen receptor beta (Homo sapiens, UniProt Q92731);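 further: recombinant ER-beta bound to coactivator SRC1 peptide in presence of estradiol agonist; inhibitors block coactivator peptide binding and lower the FRET signal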
T7 sequence (Q92731 whole entry): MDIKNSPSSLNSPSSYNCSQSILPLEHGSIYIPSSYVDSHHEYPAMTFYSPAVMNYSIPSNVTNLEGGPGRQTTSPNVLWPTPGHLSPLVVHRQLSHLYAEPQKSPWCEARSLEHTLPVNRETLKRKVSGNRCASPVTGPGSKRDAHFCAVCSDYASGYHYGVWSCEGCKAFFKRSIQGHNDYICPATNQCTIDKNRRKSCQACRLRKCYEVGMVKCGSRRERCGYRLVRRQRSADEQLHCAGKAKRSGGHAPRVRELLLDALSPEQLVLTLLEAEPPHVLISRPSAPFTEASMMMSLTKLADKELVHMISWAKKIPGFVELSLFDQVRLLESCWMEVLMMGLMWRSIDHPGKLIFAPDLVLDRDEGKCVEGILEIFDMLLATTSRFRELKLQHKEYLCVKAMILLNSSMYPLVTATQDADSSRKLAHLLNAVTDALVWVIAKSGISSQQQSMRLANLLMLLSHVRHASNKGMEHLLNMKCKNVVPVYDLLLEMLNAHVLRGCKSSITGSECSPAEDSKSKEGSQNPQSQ

[18] = target: T7, Estrogen receptor beta; assay: ERβ–SRC-3 coactivator interaction inhibitors, confirmation, orthogonal assay, biochemical, ELISA, streptavidin-HRP readout (AID 1060)
[19] = target: Tyrosine-protein phosphatase non-receptor type 11 (Homo sapiens, UniProt Q06124); assay: SHP2 phosphatase inhibition, dose response, selectivity assay for STEP inhibitor project, biochemical (AID 602367); assay type: functional; details: read-out: IC50_Mean
Tyrosine-protein phosphatase non-receptor type 11, sequence (Q06124 whole entry): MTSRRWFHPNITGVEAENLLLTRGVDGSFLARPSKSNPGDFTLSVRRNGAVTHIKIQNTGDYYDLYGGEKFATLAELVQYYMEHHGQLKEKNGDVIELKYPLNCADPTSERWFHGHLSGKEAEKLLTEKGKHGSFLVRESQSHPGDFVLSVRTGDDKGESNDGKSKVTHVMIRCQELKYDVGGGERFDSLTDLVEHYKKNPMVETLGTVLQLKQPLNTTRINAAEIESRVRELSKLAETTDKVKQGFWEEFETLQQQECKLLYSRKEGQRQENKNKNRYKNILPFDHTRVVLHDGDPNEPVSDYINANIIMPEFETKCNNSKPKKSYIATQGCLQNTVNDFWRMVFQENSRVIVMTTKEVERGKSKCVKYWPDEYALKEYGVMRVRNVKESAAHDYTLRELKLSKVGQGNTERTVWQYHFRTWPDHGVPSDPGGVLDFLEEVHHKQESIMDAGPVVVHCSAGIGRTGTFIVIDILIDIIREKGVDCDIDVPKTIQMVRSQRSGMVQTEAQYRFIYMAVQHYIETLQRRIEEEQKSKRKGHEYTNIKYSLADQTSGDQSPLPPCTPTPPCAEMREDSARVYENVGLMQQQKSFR

[20] = target: Tyrosine-protein phosphatase non-receptor type 5 (Homo sapiens, UniProt P54829); assay: STEP phosphatase inhibitors, confirmation, biochemical, fluorescence intensity, uHTS hits (AID 602372); assay type: functional; details: read-out: IC50_Mean
Tyrosine-protein phosphatase non-receptor type 5, sequence (P54829 whole entry): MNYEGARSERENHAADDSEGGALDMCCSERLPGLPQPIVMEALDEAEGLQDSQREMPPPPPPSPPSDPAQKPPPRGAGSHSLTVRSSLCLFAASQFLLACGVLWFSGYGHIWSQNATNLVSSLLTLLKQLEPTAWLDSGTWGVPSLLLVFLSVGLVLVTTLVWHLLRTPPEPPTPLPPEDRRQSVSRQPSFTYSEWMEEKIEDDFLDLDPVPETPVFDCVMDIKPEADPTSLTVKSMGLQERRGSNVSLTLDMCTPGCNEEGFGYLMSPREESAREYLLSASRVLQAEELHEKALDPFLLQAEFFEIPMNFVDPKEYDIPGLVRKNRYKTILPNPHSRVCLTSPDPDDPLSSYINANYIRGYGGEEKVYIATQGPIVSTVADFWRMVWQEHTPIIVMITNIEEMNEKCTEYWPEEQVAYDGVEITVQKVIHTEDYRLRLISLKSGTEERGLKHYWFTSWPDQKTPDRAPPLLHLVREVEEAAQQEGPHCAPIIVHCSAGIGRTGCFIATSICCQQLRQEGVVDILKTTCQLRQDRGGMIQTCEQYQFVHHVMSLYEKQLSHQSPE

[21] = target: Dual specificity protein phosphatase 3 (Homo sapiens, UniProt P51452); assay: VHR phosphatase inhibition, dose response, selectivity assay for STEP inhibitor project, biochemical (AID 602374); assay type: functional; details: read-out: IC50_Mean
Dual specificity protein phosphatase 3, sequence (P51452 whole entry): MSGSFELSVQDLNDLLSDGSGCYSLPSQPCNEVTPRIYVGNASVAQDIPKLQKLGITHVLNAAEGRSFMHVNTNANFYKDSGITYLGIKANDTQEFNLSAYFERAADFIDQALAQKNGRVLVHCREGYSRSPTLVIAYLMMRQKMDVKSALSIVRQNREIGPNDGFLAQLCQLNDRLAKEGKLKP

[22] = target: T8, Tyrosine-protein phosphatase non-receptor type 22 (Homo sapiens, UniProt Q9Y2R2); assay: PTPN22 phosphatase inhibition, dose response, selectivity assay for STEP inhibitor project, biochemical (AID 624241); assay type: functional
T8 sequence (Q9Y2R2 whole entry): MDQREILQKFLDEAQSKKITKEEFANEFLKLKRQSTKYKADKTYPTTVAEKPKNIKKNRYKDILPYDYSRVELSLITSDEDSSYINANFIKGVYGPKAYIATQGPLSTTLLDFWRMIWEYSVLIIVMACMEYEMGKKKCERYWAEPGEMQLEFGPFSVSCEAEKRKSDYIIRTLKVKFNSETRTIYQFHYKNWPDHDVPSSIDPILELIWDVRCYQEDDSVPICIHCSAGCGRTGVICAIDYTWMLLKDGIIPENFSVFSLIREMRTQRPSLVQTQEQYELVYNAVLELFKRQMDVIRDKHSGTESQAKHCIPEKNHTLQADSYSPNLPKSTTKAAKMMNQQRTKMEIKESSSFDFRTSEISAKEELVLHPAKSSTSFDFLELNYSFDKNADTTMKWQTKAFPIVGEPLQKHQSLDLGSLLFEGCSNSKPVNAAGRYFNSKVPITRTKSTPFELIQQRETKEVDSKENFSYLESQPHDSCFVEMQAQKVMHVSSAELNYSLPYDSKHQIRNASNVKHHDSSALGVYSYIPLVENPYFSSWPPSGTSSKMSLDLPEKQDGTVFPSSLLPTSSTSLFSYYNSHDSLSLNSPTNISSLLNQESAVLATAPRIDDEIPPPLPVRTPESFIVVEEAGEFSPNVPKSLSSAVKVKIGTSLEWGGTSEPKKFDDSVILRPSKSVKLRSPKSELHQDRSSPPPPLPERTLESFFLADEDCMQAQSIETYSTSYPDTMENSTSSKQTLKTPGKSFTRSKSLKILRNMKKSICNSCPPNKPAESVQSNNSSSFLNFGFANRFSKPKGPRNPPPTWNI

Photoreceptor-specific nuclear receptor, sequence (Q9Y5X4 whole entry, the tested form may be a part): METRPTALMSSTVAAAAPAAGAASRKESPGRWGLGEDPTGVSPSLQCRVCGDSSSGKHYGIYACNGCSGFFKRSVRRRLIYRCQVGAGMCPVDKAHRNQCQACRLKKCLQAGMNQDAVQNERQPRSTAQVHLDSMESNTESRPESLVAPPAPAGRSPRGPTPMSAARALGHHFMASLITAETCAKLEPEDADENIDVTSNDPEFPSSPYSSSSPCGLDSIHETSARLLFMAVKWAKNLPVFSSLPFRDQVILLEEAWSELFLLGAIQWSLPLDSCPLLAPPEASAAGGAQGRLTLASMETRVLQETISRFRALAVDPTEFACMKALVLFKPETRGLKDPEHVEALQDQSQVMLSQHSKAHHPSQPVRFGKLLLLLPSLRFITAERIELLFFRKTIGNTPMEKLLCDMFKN

## Cc1cnc(NC(=O)Cc2ccc(Br)cc2)s1
[1]
  IC50: 1.15 µM (active)

## Cc1ccc(C(=O)NNC(=O)c2cc3cc4ccccc4nc3s2)cc1
[2]
  AC50: 39.8 µM (inconclusive)
[3]
  IC50: 4.33 µM (active)
[4]
  IC50: 12.8 µM (active)
[5]
  IC50: 12.1 µM (active)
[6]
  IC50: 27.3 µM (active)
[7]
  IC50: 52.9 µM (inactive)
[8]
  AC50: 4.47 µM (inconclusive)

## CC1=CC2=NC(=O)/C(=C\c3ccc(-c4ccc(Cl)cc4)o3)C(=N)N2O1
[9]
  IC50: 3.41 µM (active)

## COc1ccc(-c2[nH]nc3c2CN(C(=O)c2ccc(OC)c(OC)c2)CC3)cc1
[10]
  AC50: 25.6 µM (active)
[11]
  AC50: 0.912 µM (active)

## COc1ccccc1-c1c(C)nn2c(N3CCN(c4ccccc4OC)CC3)cc(C)nc12
[12]
  IC50: 12.9 µM (active)
[13]
  EC50: > 53 µM (inactive)
[14]
  IC50: > 20 µM (inactive)

## Cc1ccc(S(=O)(=O)Cc2ccc(C(=O)O)o2)cc1
[15]
  IC50: 16 µM (active)
[16]
  IC50: 18.1 µM (active)
[17]
  IC50: 5.22 µM (active)
[18]
  IC50: < 0.023 µM (not active)
[3]
  IC50: 3.66 µM (active)
[19]
  IC50: 0.776 µM (active)
[20]
  IC50: 23.4 µM (inactive)
[21]
  IC50: 1.03 µM (active)
[22]
  IC50: 21.8 µM (inactive)
